Source: ChEMBL document CHEMBL4725397, “SAR study of bisamides as cyclophilin a inhibitors for the development of host-targeting therapy for hepatitis C virus infection” (Bioorg Med Chem, 2020)

Assays:
[1] = Cytotoxicity against human Huh7.5 cells assessed as decrease in cell viability after 3 days by MTT assay; type: cell-based; settings: time 3 day
[2] = Antiviral activity against HCV genotype 2a JFH-1 infected in human Huh7.5 cells after 3 days by renilla luciferase reporter gene assay; type: functional, cell-based, Hepatitis C virus subtype 2a; settings: Hepatitis C virus, JFH-1, Huh7.5, 72 h
[3] = Selectivity index, ratio of CC50 for human Huh7.5 cells to EC50 for genotype 2a HCV JFH-1 infected in human Huh7.5 cells; type: toxicity, cell-based
[4] = biological target: Peptidyl-prolyl cis-trans isomerase A (Homo sapiens, UniProt P62937); assay: Binding affinity to Cyclophilin A (unknown origin) by surface plasmon resonance analysis
[5] = tested on: Hepatitis C virus; assay: Antiviral activity against 0.05 MOI HCV JFH-1 infected in human Huh7.5 assessed as suppression of viral replication after 4 days post-infection by western blot analysis; type: functional, organism-based; settings: Hepacivirus hominis, time 4.0 day

Chain of Peptidyl-prolyl cis-trans isomerase A (P62937 whole entry): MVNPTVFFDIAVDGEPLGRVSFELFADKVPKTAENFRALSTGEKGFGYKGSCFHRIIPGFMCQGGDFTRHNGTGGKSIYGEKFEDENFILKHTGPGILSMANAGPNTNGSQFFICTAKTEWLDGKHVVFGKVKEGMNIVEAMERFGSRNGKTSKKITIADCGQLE

Compound	CC50 at 72 h [1] [µM]	EC50 [2] [µM]	selectivity ratio [3]	Kd [4] [µM]	Activity [5]
O=C(NC1CCCCC1)C(c1ccc([N+](=O)[O-])cc1)N(C(=O)Cc1c[nH]c2ccccc12)c1ccc(Br)cc1 (centres undefined)	13.8	6.3	2.2	–	–
CC(C)c1ccc(N(C(=O)Cc2c[nH]c3ccccc23)C(C(=O)NC2CCCCC2)c2ccc([N+](=O)[O-])cc2)cc1 (centres undefined)	–	–	–	4.6	–
COc1ccc(CCN(C(=O)Cc2c[nH]c3ccccc23)C(C(=O)NC2CCCCC2)c2cc(OC)c(OC)c(OC)c2)cc1OC (centres undefined)	> 100	5.3	–	–	–
CC(C)(C)NC(=O)C(c1ccc([N+](=O)[O-])cc1)N(C(=O)Cc1c[nH]c2ccccc12)c1ccc(Br)cc1 (centres undefined)	7	> 7	–	–	–
NC(=O)c1ncn([C@@H]2O[C@H](CO)[C@@H](O)[C@H]2O)n1 [RIBAVIRIN]	> 100	16.3	> 6.1	–	–
COc1ccc(CCN(C(=O)c2cc3ccccc3[nH]2)C(C(=O)NC2CCCCC2)c2ccc([N+](=O)[O-])cc2)cc1OC (centres undefined)	> 100	31.9	> 3.1	–	–
COc1ccc(CCC(=O)N(c2ccc(Br)cc2)C(C(=O)NC2CCCCC2)c2ccc([N+](=O)[O-])cc2)cc1 (centres undefined)	9.8	6.1	–	–	–
COc1ccc(N(C(=O)c2cc3ccccc3[nH]2)C(C(=O)NC2CCCCC2)c2ccc([N+](=O)[O-])cc2)cc1OC (centres undefined)	> 100	4.1	> 24.5	–	Dose-dependent effect
COc1ccc(N(C(=O)Cc2c[nH]c3ccccc23)C(C(=O)NC2CCCCC2)c2ccc([N+](=O)[O-])cc2)cc1OC (centres undefined)	57.6	3.2	18	–	–
COc1cccc(CCN(C(=O)c2cc3ccccc3[nH]2)C(C(=O)NC2CCCCC2)c2ccc([N+](=O)[O-])cc2)c1 (centres undefined)	43.1	22.2	1.9	–	–
COc1ccc(CN(C(=O)Cc2c[nH]c3ccccc23)C(C(=O)NC2CCCCC2)c2ccc([N+](=O)[O-])cc2)cc1 (centres undefined)	56.3	> 56.3	–	–	–
COc1cccc(CCN(C(=O)Cc2c[nH]c3ccccc23)C(C(=O)NC2CCCCC2)c2ccc([N+](=O)[O-])cc2)c1 (centres undefined)	27.6	> 27.6	–	–	–
CCCCCNC(=O)C(c1ccc([N+](=O)[O-])cc1)N(C(=O)Cc1c[nH]c2ccccc12)c1ccc(Br)cc1 (centres undefined)	7	> 7	–	–	–
O=C(NC1CCCCC1)C(c1ccc([N+](=O)[O-])cc1)N(C(=O)Cc1c[nH]c2ccccc12)c1ccccc1 (centres undefined)	11.9	6	2	–	–
COc1ccc(N(C(=O)Cc2c[nH]c3ccccc23)C(C(=O)NC2CCCCC2)c2ccc([N+](=O)[O-])cc2)cc1 (centres undefined)	8.5	2.5	3.4	–	–
COc1ccc(CCN(C(=O)Cc2c[nH]c3ccccc23)C(C(=O)NC2CCCCC2)c2ccc([N+](=O)[O-])cc2)cc1OC (centres undefined)	> 100	4.2	> 23.8	–	Dose-dependent effect
COc1cc(C(C(=O)NC2CCCCC2)N(C(=O)Cc2c[nH]c3ccccc23)c2ccc(C(C)C)cc2)cc(OC)c1OC (centres undefined)	> 100	5.2	–	–	–
